Experimental data from patent US12336991B2, “Factor XIIA inhibitors” (UNIVERSITY OF LEEDS, priority 2018, dated 2025).

Legend:
Type in all cases: biochemical
FXIIa = molecular target: T1, FXIIa (Homo sapiens, UniProt P00748); assay: Determination of Factor XIIa inhibition, chromogenic substrate S-2302 assay; conditions: human FXIIa alpha
T1 sequence (P00748 373-615 limits assumed): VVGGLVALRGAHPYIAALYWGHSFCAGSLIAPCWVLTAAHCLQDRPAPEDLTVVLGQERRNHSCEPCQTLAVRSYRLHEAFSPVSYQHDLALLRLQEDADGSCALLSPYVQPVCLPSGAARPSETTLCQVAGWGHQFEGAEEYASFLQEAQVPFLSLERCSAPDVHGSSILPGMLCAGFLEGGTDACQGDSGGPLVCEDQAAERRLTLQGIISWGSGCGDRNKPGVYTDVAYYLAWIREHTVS
T1 sequence (P00748 20-372 partner limits assumed): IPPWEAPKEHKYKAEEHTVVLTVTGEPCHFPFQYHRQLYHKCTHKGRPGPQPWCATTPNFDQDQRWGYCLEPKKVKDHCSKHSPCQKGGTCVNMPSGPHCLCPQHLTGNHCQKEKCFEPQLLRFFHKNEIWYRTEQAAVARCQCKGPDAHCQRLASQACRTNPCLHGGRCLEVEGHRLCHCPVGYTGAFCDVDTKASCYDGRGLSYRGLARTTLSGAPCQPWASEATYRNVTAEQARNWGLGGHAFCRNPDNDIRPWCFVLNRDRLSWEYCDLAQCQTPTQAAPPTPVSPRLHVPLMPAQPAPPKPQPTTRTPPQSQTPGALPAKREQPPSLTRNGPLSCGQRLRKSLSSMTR
How it was run: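 FXIIa (10 nM) preincubated with compound 10 min at 37° C. in 50 mM Tris, 137 mM NaCl pH 7.4, 5% DMSO, top concentration 500 μM, then S-2302 added ([…]). Absorbance at 405 nm read kinetically for 3 h; IC50 from initial rates, converted to Ki by Cheng-Prusoff.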

thrombin = molecular target: T2, thrombin (Homo sapiens, UniProt P00734); assay: Determination of selectivity: thrombin inhibition, chromogenic substrate GPR assay; conditions: fold selectivity for FXIIa over thrombin
T2 construct: FXa (5 nM) and thrombin (5 nM)
How it was run: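 Thrombin (5 nM) preincubated with compound 10 min at 37 °C in 50 mM Tris, 137 mM NaCl, pH 7.4, 5% DMSO, then GPR substrate ([…]) added. Absorbance at 405 nm read kinetically for 3 h; IC50 from initial rates, converted to Ki via Ki=IC50/(1+[S]/Km).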

FXa = FXa (Homo sapiens, UniProt P00742); assay: Determination of selectivity: FXa inhibition, chromogenic substrate S2765 assay; conditions: fold selectivity for FXIIa over FXa
How it was run: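 Human FXa (5 nM) preincubated with compound (top 500 μM, 5% DMSO) 10 min at 37 °C in 50 mM Tris, 137 mM NaCl pH 7.4, then S2765 ([…]) added; A405 kinetics over 3 h at 37 °C. IC50 from initial rates, converted to Ki via Cheng-Prusoff.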

FXa, sequence (P00742 235-488 limits assumed): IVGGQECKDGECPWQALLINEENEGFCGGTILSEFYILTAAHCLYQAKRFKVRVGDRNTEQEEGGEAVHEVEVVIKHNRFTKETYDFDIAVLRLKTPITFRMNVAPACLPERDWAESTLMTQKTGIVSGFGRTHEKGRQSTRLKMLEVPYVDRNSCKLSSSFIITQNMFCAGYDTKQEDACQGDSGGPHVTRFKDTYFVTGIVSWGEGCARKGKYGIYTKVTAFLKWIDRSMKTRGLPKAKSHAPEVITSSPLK
FXa, sequence (P00742 41-179 partner limits assumed): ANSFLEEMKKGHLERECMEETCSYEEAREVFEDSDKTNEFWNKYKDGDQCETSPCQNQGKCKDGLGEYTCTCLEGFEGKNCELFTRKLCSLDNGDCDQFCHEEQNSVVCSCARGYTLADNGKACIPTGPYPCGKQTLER

Compound	Ki (FXIIa)	Thrombin (human)/FXIIa alpha (human) (thrombin)	FXa (human)/FXIIa alpha (human) (FXa)
Cn1nnc2cc(CNC(=O)[C@@H]3C[C@@H](Cc4ccc(F)cc4F)CN3C(=O)[C@H](N)CCC(=O)N3CCCC3)ccc21 [Example M05235]	< 0.2 µM	+++ (fold selectivity values greater than 100)	∘∘∘
Cn1nnc2cc(CNC(=O)[C@@H]3C[C@H](Cc4cccc(F)c4)CN3C(=O)[C@H](N)CCC(=O)N3CCCC3)ccc21 [Example M05232]	0.2 to 2 µM	+++ (fold selectivity values greater than 100)	∘∘∘
Cn1nccc1C[C@H]1C[C@@H](C(=O)NCc2ccc3c(c2)nnn3C)N(C(=O)[C@H](N)CCC(=O)N2CCCC2)C1 [Example M05294]	0.2 to 2 µM	++ (fold selectivity value of 10 to 100)	∘∘∘
Cn1nnc2cc(CNC(=O)[C@@H]3C[C@H](Cc4ccccn4)CN3C(=O)[C@H](N)CCC(=O)N3CCCC3)ccc21 [Example M05296]	0.2 to 2 µM	+++ (fold selectivity values greater than 100)	∘∘∘
COc1ccc(C[C@@H]2C[C@@H](C(=O)NCc3ccc4c(c3)nnn4C)N(C(=O)C3NCCc4cc(Br)ccc43)C2)cc1 (stereo partly drawn) [Example M05470]	< 0.2 µM	+++ (fold selectivity values greater than 100)	∘∘∘
Cn1nnc2cc(CNC(=O)[C@@H]3CC(Cc4ccc(F)c(Cl)c4F)CN3C(=O)[C@H](N)CCC(=O)N3CCCC3)ccc21 (stereo partly drawn) [Example M05295]	0.2 to 2 µM	+++ (fold selectivity values greater than 100)	∘∘∘
N[C@H](CCC(=O)N1CCCC1)C(=O)N1C[C@H](Cc2ccc(C(F)(F)F)cc2)C[C@H]1C(=O)NCc1cc2cnccc2[nH]1 [Example M00969]	< 0.2 µM	+++ (fold selectivity values greater than 100)	∘∘∘
Cc1ccc(CC[C@@H](N)C(=O)N2CCC[C@H]2C(=O)NCc2ccc(CN)cc2)cc1 [Example M00787]	> 2 µM	+ (fold selectivity values less than 10)	∘∘
COc1ccc(C[C@@H]2C[C@@H](C(=O)NCc3ccc4c(c3)nnn4C)N(C(=O)[C@H]3C[C@@H](Cc4ccccc4)CN3)C2)cc1 [Example M05383]	0.2 to 2 µM	++ (fold selectivity value of 10 to 100)	∘∘∘
Cn1nnc2cc(CNC(=O)[C@@H]3C[C@@H](c4ccccc4)CN3C(=O)[C@H](N)CCc3ccccc3)ccc21 [Example M05119, (2S,4S)-1-((R)-2-Amino-4-phenyl-butyryl)-4-phenyl-pyrrolidine-2-carboxylic acid (1-methyl-1H-benzotriazol-5-ylmethyl)-amide]	> 2 µM	++ (fold selectivity value of 10 to 100)	∘∘
Cn1nnc2cc(CNC(=O)[C@@H]3C[C@@H](Cc4ccc(Cl)cc4Cl)CN3C(=O)[C@H]3C[C@@H](c4ccccc4)CN3)ccc21 [Example M05373]	0.2 to 2 µM	++ (fold selectivity value of 10 to 100)	∘∘
Nc1nccc2cc(CNC(=O)[C@@H]3C[C@@H](Cc4cccc(Cl)c4)CN3C(=O)[C@H](N)CCC(=O)N3CCCC3)ccc12 [Example M05266]	0.2 to 2 µM	+ (fold selectivity values less than 10)	∘∘
Cc1cccc(C[C@@H]2C[C@@H](C(=O)NCc3ccc4c(c3)nnn4C)N(C(=O)[C@H]3C[C@@H](c4ccccc4)CN3)C2)c1 [Example M05359]	0.2 to 2 µM	++ (fold selectivity value of 10 to 100)	∘∘
COc1ccc(C[C@@H]2C[C@@H](C(=O)NCc3ccc4c(c3)nnn4C)N(C(=O)[C@H]3CC(c4ccccc4C(F)(F)F)CN3)C2)cc1 (stereo partly drawn) [Example M05397]	0.2 to 2 µM	+++ (fold selectivity values greater than 100)	∘∘∘
Cn1nnc2cc(CNC(=O)[C@@H]3C[C@@H](Cc4ccc(-c5cn[nH]c5)cc4)CN3C(=O)[C@H]3C[C@@H](c4ccccc4)CN3)ccc21 [Example M05364]	> 2 µM	++ (fold selectivity value of 10 to 100)	∘∘
Nc1nccc2cc(CNC(=O)[C@@H]3C[C@H](c4ccccc4)CN3C(=O)[C@H](N)CCC(=O)N3CCCC3)ccc12 [Example M05281]	0.2 to 2 µM	++ (fold selectivity value of 10 to 100)	∘

Continued, values first:

Ki (FXIIa)	Thrombin (human)/FXIIa alpha (human) (thrombin)	FXa (human)/FXIIa alpha (human) (FXa)	Compound
> 2 µM	++ (fold selectivity value of 10 to 100)	∘∘	Cn1nnc2cc(CNC(=O)[C@@H]3C[C@H](NCc4ccc(Cl)cc4)CN3C(=O)[C@H](N)CCc3ccccc3)ccc21 [Example M05160]
> 2 µM	++ (fold selectivity value of 10 to 100)	∘∘	Cn1nnc2cc(CNC(=O)[C@@H]3C[C@H](C(F)(F)F)CN3C(=O)[C@H]3C[C@@H](c4ccccc4)CN3)ccc21 [Example M05280]
0.2 to 2 µM	++ (fold selectivity value of 10 to 100)	∘∘	Cn1nnc2cc(CNC(=O)[C@@H]3C[C@@H](Cc4ccc(C(F)(F)F)cc4)CN3C(=O)[C@H]3C[C@@H](c4ccccc4)CN3)ccc21 [Example M05334]
0.2 to 2 µM	++ (fold selectivity value of 10 to 100)	∘∘	Cc1ccccc1C[C@@H]1C[C@@H](C(=O)NCc2ccc3c(c2)nnn3C)N(C(=O)[C@H]2C[C@@H](c3ccccc3)CN2)C1 [Example M05360]
> 2 µM	++ (fold selectivity value of 10 to 100)	∘∘	NCc1ccc(CNC(=O)[C@@H]2CCCN2C(=O)[C@H](N)CCN2CCCCC2)cc1 [Example M00801]
> 2 µM	++ (fold selectivity value of 10 to 100)	∘∘	CC(=O)N(Cc1cccnc1)[C@H]1C[C@@H](C(=O)NCc2ccc3c(c2)nnn3C)N(C(=O)[C@H](N)CCc2ccccc2)C1 [Example M05162]
0.2 to 2 µM	+ (fold selectivity values less than 10)	∘∘	COc1cc(CNC(=O)[C@@H]2C[C@H](C)CN2C(=O)[C@H](N)CCc2ccccc2)ccc1CN [Example M05073]
0.2 to 2 µM	++ (fold selectivity value of 10 to 100)	∘∘∘	O=C(NCc1cc2cnccc2[nH]1)[C@@H]1C[C@@H](Cc2ccc(C(F)(F)F)cc2)CN1C(=O)C1NCCc2cc(Cl)ccc21 (stereo partly drawn) [Example M00970]
> 2 µM	++ (fold selectivity value of 10 to 100)	∘∘	Cn1nnc2cc(CNC(=O)[C@@H]3C[C@@](O)(c4ccccc4)CN3C(=O)[C@H](N)CCc3ccccc3)ccc21 [Example M05126]
> 2 µM	++ (fold selectivity value of 10 to 100)	∘∘	Cn1nnc2cc(CNC(=O)[C@@H]3C[C@@H](Cc4cccc5c4CCO5)CN3C(=O)[C@H]3C[C@@H](c4ccccc4)CN3)ccc21 [Example M05371]
0.2 to 2 µM	++ (fold selectivity value of 10 to 100)	∘∘∘	Cn1nnc2cc(CNC(=O)[C@@H]3CC(Cc4ccnc(C(F)(F)F)c4)CN3C(=O)[C@H](N)CCC(=O)N3CCCC3)ccc21 (stereo partly drawn) [Example M05303]
> 2 µM	++ (fold selectivity value of 10 to 100)	∘∘	Cn1nnc2cc(CNC(=O)[C@@H]3C[C@H](N4CCN(Cc5ccccc5)CC4)CN3C(=O)[C@H](N)CCc3ccccc3)ccc21 [Example M05200, (2S,4S)-1-((R)-2-Amino-4-phenyl-butyryl)-4-(4-benzyl-piperazin-1-yl)-pyrrolidine-2-carboxylic acid (1-methyl-1H-benzotriazol-5-ylmethyl)-amide]
